Data as given in patent publication US20250304576A1 (Cancer Research Technology Limited, priority 2022, published 2025).

What was measured:
Recombinant IKKβ = molecular target: T1, Recombinant IKKβ (Homo sapiens, UniProt O14920); assay: DELFIA IKKβ kinase assay (apparent Ki, Cheng-Prusoff); assay type: biochemical
T1 construct: purchased Millipore, Dundee, UK
T1 sequence (O14920 1-756): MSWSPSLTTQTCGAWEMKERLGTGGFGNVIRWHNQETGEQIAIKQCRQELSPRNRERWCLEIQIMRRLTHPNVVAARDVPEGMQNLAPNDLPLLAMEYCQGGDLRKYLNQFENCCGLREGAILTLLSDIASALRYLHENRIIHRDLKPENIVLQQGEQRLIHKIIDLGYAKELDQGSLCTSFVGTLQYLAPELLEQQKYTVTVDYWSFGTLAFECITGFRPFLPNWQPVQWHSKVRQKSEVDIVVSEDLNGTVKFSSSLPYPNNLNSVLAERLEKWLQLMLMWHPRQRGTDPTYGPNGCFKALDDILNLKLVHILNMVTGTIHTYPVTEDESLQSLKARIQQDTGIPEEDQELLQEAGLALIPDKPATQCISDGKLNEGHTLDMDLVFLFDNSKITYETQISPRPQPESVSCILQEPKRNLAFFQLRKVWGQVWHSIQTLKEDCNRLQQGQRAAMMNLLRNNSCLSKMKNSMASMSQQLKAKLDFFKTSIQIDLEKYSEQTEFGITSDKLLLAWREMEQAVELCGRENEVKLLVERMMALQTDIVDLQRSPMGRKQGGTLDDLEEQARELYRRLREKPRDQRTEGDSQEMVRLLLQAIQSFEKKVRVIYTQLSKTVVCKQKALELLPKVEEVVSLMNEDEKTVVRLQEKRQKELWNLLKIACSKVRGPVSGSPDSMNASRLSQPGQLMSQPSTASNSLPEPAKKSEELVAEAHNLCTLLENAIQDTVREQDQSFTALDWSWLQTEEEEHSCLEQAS
Experimental: (§1) IKKα and IKKβ inhibitory activity was determined using three different assays: a dissociation enhanced ligand fluorescent immunoassay (DELFIA) based on the protocol of HTScan™ IKKβ Kinase Assay (Cell Signaling Technology, USA); an Adapta IKKα assay (performed by Life Technologies); a Z′-LYTE™ IKKβ assay (performed by Life Technologies).
(§2) Recombinant IKKα or IKKβ, 37 nM, (Millipore, Dundee, UK) was incubated with IηB-α (Ser32) (New England Biolabs, Hitchin, UK) biotinylated peptide substrate (0.375 μM) and 40 μM ATP in assay buffer (40 mM Tris-HCl (pH 7.5), 20 mM MgCl2, EDTA 1 mM, DTT 2 mM and BSA 0.01 mg/ml) in a V-well 96-well plate in the presence and absence of test compound. The assay plate was incubated for 60 minutes at 30° C. after which the kinase reaction was quenched by the addition of 50 mM EDTA, pH8. The resulting mixture was transferred to a streptavidin coated 96-well plate (Perkin Elmer, Beaconsfield, UK) and incubated for 1 hour at 30° C. to immobilise the substrate peptide. After three washes with wash buffer (0.01 M phosphate buffered saline (PBS), 0.05% Tween −20, pH 7.4) a primary antibody against the phosphorylated substrate (phospho-IηB-a) (Ser32/36) (5A5) Mouse mAb (New England Biolabs, Hitchin, UK) (1:1000 dilution with 1% bovine serum albumin (BSA) in wash buffer) was added and incubated at 37° C. for 2 h.
(§3) After a further three washes, a secondary europiated antibody (Eu-N1 labelled anti-mouse IgG, (Perkin Elmer, Beaconsfield, UK) diluted 1:500 in 1% BSA/wash buffer) was added and incubated at 30° C. for 30 minutes. After a further five washes, DELFIA enhancement solution—(Perkin Elmer, Beaconsfield UK) was added and allowed to incubate for 10 min at room temperature, protected from light, to facilitate the chemifluorescent detection. The relative fluorescence units (RFU) signal were measured on a Wallac Victor 1420 multilabel counter (Perkin Elmer, Beaconsfield, UK), in time-resolved fluorescence mode. The counter was set at an excitation wavelength of 340 nm with a 400 μs delay before detecting emitted light at 615 nm. The apparent Ki of the […] was calculated for each compound using the Cheng-Prusoff Equation.
(§4) The IKKα and IKKβ figures quoted in non-italicised form are from the DELFIA assay described above.

Recombinant IKKα = molecular target: T2, Recombinant IKKα (Homo sapiens, UniProt O15111); assay: DELFIA IKKα kinase assay (apparent Ki, Cheng-Prusoff); assay type: biochemical
T2 construct: purchased Millipore, Dundee, UK
T2 sequence (O15111 1-745): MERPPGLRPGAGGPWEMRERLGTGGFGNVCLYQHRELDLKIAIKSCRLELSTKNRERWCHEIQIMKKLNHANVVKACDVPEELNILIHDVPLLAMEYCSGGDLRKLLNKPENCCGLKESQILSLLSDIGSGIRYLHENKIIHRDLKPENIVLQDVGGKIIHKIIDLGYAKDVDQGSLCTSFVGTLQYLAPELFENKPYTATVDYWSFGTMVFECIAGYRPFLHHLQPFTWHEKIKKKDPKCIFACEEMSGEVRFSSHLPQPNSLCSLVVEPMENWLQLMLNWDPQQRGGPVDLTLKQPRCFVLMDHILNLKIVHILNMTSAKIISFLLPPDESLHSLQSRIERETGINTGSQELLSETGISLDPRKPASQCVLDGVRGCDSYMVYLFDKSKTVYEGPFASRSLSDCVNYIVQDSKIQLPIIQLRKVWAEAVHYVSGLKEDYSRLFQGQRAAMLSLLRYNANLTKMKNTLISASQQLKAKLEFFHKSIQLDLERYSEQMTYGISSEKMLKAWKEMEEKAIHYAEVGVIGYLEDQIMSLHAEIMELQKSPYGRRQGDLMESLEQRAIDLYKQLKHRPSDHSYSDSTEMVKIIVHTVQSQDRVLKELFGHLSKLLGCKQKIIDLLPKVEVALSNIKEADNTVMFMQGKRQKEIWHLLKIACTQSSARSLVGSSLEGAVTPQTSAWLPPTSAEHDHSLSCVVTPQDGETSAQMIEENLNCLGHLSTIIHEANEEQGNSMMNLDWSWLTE
Experimental: as §1, §2, §3, §4

[1] = non-italicised figure: DELFIA assay
[2] = DELFIA assay (first line of an example)

SMILES	Ki (Recombinant IKKβ; [1]) [nM]	Ki (Recombinant IKKα; [1]) [nM]	Ki (Recombinant IKKβ; [2]) [nM]	Ki (Recombinant IKKα; [2]) [nM]
CC(C)(C)C#Cc1cc(-c2ccnc(NC(=O)CO)c2)cc2c(N)n[nH]c12 [Example 174, N-(4-(3-Amino-7-(3,3-dimethylbut-1-yn-1-yl)-1H-indazol-5-yl)pyridin-2-yl)-2-hydroxyacetamide]	611	20		
COc1ccccc1C#Cc1c(-c2ccc3[nH]nc(N)c3c2)ccnc1N [Example 81, 5-(2-Amino-3-((2-methoxyphenyl)ethynyl)pyridine-4-yl)-1H-indazol-3-amine]	484	15		
CC(C)(C)C#Cc1cc(-c2ccnc(NC#N)c2)cc2c(N)n[nH]c12 [Example 309, N-(4-(3-Amino-7-(3,3-dimethylbut-1-yn-1-yl)-1H-indazol-5-yl)pyridin-2-yl)cyanamide]			8660	421
CC(C)(C)c1ccc(NC(=O)Nc2cc(-c3ccc4[nH]nc(N)c4c3)ccn2)cc1 [Example 64, 1-(4-(3-Amino-1H-indazol-5-yl)pyridin-2-yl)-3-(4-(tert-butyl)phenyl)urea]	2900	76		
COC(=O)Nc1cc(-c2cc(C#CC3(O)CCCC3)c3[nH]nc(N)c3c2)ccn1 [Example 304, Methyl (4-(3-amino-7-((1-hydroxycyclopentyl)ethynyl)-1H-indazol-5-yl)pyridin-2-yl)carbamate]			275	64
CCCCCCNc1cc(-c2ccc3[nH]nc(N)c3c2)ccn1 [Example 17, 5-(2-(Hexylamino)pyridine-4-yl)-1H-indazol-3-amine]	1340	114		
Nc1cc(-c2cc(-c3ccc(CCN4CCOCC4)cc3)c3[nH]nc(N)c3c2)ccn1 [Example 329, 5-(2-Aminopyridin-4-yl)-7-(4-(2-morpholinoethyl)phenyl)-1H-indazol-3-amine]			108	14
Nc1cccc(-c2cc(-c3ccnc(N)c3)cc3c(N)n[nH]c23)c1 [Example 107, 7-(3-Aminophenyl)-5-(2-aminopyridin-4-yl)-1H-indazol-3-amine]	545	14		
CC(C)Nc1cc(-c2ccc3[nH]nc(N)c3c2)ccn1 [Example 14, 5-(2-(Isopropylamino)pyridin-4-yl)-1H-indazol-3-amine]	587	76		
COCC(=O)Nc1cc(-c2cc(C#CC(C)(C)C)c3[nH]nc(N)c3c2)ccn1 [Example 175, N-(4-(3-Amino-7-(3,3-dimethylbut-1-yn-1-yl)-1H-indazol-5-yl)pyridin-2-yl)-2-methoxyacetamide]	1110	24		
Nc1ccc(C#Cc2c(-c3ccc4[nH]nc(N)c4c3)ccnc2N)cc1 [Example 76, 5-(2-Amino-3-((4-aminophenyl)ethynyl)pyridine-4-yl)-1H-indazol-3-amine]	32	8		

Results, then the compound that gave them:

Ki (Recombinant IKKβ; [1]) [nM]	Ki (Recombinant IKKα; [1]) [nM]	Ki (Recombinant IKKβ; [2]) [nM]	Ki (Recombinant IKKα; [2]) [nM]	SMILES
		2220	40	CC(C)OCCCNCc1cc2c(-c3ccc4[nH]nc(N)c4c3)ccnc2[nH]1 [Example 257, 5-(2-(((3-Isopropoxypropyl)amino)methyl)-1H-pyrrolo[2,3-b]346yridine-4-yl)-1H-indazol-3-amine]
		922	95	CCC(O)(CC)c1cc2c(-c3ccc4[nH]nc(N)c4c3)ccnc2[nH]1 [Example 226, 3-(4-(3-Amino-1H-indazol-5-yl)-1H-pyrrolo[2,3-d]pyridin-2-yl)pentan-3-ol]
		122	4	NCCNC(=O)c1cc2c(-c3ccc4[nH]nc(N)c4c3)ccnc2[nH]1 [Example 241, 4-(3-Amino-1H-indazol-5-yl)-N-(2-aminoethyl)-1H-pyrrolo[2,3-b]pyridine-2-carboxamide]
26	6			Nc1n[nH]c2c(Br)cc(-c3ccnc4[nH]ccc34)cc12 [Example 5, 7-Bromo-5-(1H-pyrrolo[2,3-b]pyridin-4-yl)-1H-indazol-3-amine]
		30	5	COCCNC(=O)c1cc2c(-c3ccc4[nH]nc(N)c4c3)ccnc2[nH]1 [Example 240, 4-(3-Amino-1H-indazol-5-yl)-N-(2-methoxyethyl)-1H-pyrrolo[2,3-b]pyridine-2-carboxamide]
